In US6583175B2, “Alkylxanthates and use of alkylxanthates in the integrated pest management” (Council of Scientific & Industrial Research, priority 2001, dated 2003):
≈ marks a conversion by molar mass, not a printed value. Where two headings read alike, the source gives them in different places.

Assays:
Spodoptera litura [1] = test: Antifeedant activity against late third instar of Spodoptera litura (leaf disk, oral feeding); assay type: in vivo; settings: for Concentration required for 50% leaf protection EC50 ± S.E.: late third instar
Aedes aegypti mosquito = settings: various aquatic stages of Aedes aegypti; cited from earlier work
in vivo = settings: Artemia salina (brine shrimp), other: exposure in artificial seawater in the sample vial
Aedes aegypti = assay type: in vivo; settings: IV instar larvae, 24 hours
Helicoverpa armigera = assay type: in vivo; settings: topical
Spodoptera litura [2] = assay type: in vivo; settings: topical
[3] = tested on: Brine shrimp, Artemia salina; settings: in vivo

## CC(C)COC(=S)SCCSC(=S)OCC(C)C [Ethylene bis (isobutylxanthate), Ethylene Bis (isobutylxanthate)]
Spodoptera litura [1]; 20 μg/sq. cm.
  A.I. (Anti-feedent Index): 8.14
  Percent leaf consumption 12 hr: 60.2%
  Percent leaf consumption 24 hr: 80.7%
Spodoptera litura [1]; 35 μg/sq. cm.
  A.I. (Anti-feedent Index): 20.48
  Percent leaf consumption 12 hr: 36.1%
  Percent leaf consumption 24 hr: 62.7%
Spodoptera litura [1]; 50 μg/sq. cm.
  A.I. (Anti-feedent Index): 34.85
  Percent leaf consumption 12 hr: 22.4%
  Percent leaf consumption 24 hr: 45.9%
Spodoptera litura [1]; 65 μg/sq. cm.
  A.I. (Anti-feedent Index): 58.07
  Percent leaf consumption 12 hr: 9.3%
  Percent leaf consumption 24 hr: 25.2%
Spodoptera litura [1]
  Concentration required for 50% leaf protection EC50 ± S.E.: 42.46 ± 5.76 μg/cm^2
Aedes aegypti mosquito
  larvicidal and insect growth regulatory activity: larvicidal and insect growth regulatory activity in dose dependent mannar
In vivo
  LC50 at 24 h: 25.8 ± 2.9 µg/mL (≈ 78.9 µM)

## CCCCOC(=S)SCSC(=S)OCCCC [Methylene bis (n-butylxanthate), Methylene Bis(n-butylxanthate)]
Aedes aegypti
  LC50 ± S.E.: 5.33 ± 0.97 mg/L (≈ 17.1 µM)
Spodoptera litura [1]; 10 μg/sq. cm.
  A.I. (Anti-feedent Index): 5.50
  Percent leaf consumption 12 hr: 48.55%
  Percent leaf consumption 24 hr: 85.1%
Spodoptera litura [1]; 15 μg/sq. cm.
  A.I. (Anti-feedent Index): 22.27
  Percent leaf consumption 12 hr: 35.2%
  Percent leaf consumption 24 hr: 60.4%
Spodoptera litura [1]; 20 μg/sq. cm.
  A.I. (Anti-feedent Index): 35.14
  Percent leaf consumption 12 hr: 22.5%
  Percent leaf consumption 24 hr: 45.6%
Spodoptera litura [1]; 25 μg/sq. cm.
  A.I. (Anti-feedent Index): 64.22
  Percent leaf consumption 12 hr: 3.5%
  Percent leaf consumption 24 hr: 20.7%
Spodoptera litura [1]; 30 μg/sq. cm.
  A.I. (Anti-feedent Index): 85.37
  Percent leaf consumption 12 hr: 0%
  Percent leaf consumption 24 hr: 7.5%
Spodoptera litura [1]
  Concentration required for 50% leaf protection EC50 ± S.E.: 17.11 ± 1.36 μg/cm^2
Helicoverpa armigera; 20 μg/Insect
  Adult emergence: Abnormal adults: 41
  Adult emergence: Intermediates: 17
  Adult emergence: Non emergence: 3
  Adult emergence: Normal adults: 27
  Larval mortality (%): 7%
  Pupal Formation: Abnormal pupa: 36
  Pupal Formation: Normal pupa: 52
  Pupal Formation: Pupal Mortality: 5
Helicoverpa armigera; 35 μg/Insect
  Adult emergence: Abnormal adults: 11
  Adult emergence: Intermediates: 18
  Adult emergence: Non emergence: 9
  Adult emergence: Normal adults: 17
  Larval mortality (%): 12%
  Pupal Formation: Abnormal pupa: 28
  Pupal Formation: Normal pupa: 27
  Pupal Formation: Pupal Mortality: 33
Helicoverpa armigera; 50 μg/Insect
  Adult emergence: Abnormal adults: 9
  Adult emergence: Intermediates: 6
  Adult emergence: Non emergence: 21
  Adult emergence: Normal adults: 8
  Larval mortality (%): 28%
  Pupal Formation: Abnormal pupa: 32
  Pupal Formation: Normal pupa: 12
  Pupal Formation: Pupal Mortality: 28
Helicoverpa armigera; 75 μg/Insect
  Adult emergence: Abnormal adults: 1
  Adult emergence: Intermediates: 2
  Adult emergence: Non emergence: 24
  Adult emergence: Normal adults: 0
  Larval mortality (%): 49%
  Pupal Formation: Abnormal pupa: 27
  Pupal Formation: Normal pupa: 0
  Pupal Formation: Pupal Mortality: 24
Helicoverpa armigera; 100 μg/Insect
  Adult emergence: Abnormal adults: 0
  Adult emergence: Intermediates: 2
  Adult emergence: Non emergence: 20
  Adult emergence: Normal adults: 0
  Larval mortality (%): 61%
  Pupal Formation: Abnormal pupa: 22
  Pupal Formation: Normal pupa: 0
  Pupal Formation: Pupal Mortality: 17
Spodoptera litura [2]; 5 μg/Insect
  Adult emergence: Abnormal adults: 26
  Adult emergence: Intermediates: 28
  Adult emergence: Non-emergence: 0
  Adult emergence: Normal adults: 41
  Larval mortality (%): 0%
  Pupal Formation: Abnormal pupa: 41
  Pupal Formation: Normal pupa: 59
  Pupal Formation: Pupal Mortality: 5
Spodoptera litura [2]; 10 μg/Insect
  Adult emergence: Abnormal adults: 22
  Adult emergence: Intermediates: 34
  Adult emergence: Non-emergence: 1
  Adult emergence: Normal adults: 36
  Larval mortality (%): 0%
  Pupal Formation: Abnormal pupa: 48
  Pupal Formation: Normal pupa: 52
  Pupal Formation: Pupal Mortality: 8
Spodoptera litura [2]; 20 μg/Insect
  Adult emergence: Abnormal adults: 27
  Adult emergence: Intermediates: 32
  Adult emergence: Non-emergence: 2
  Adult emergence: Normal adults: 24
  Larval mortality (%): 0%
  Pupal Formation: Abnormal pupa: 53
  Pupal Formation: Normal pupa: 47
  Pupal Formation: Pupal Mortality: 17
Spodoptera litura [2]; 35 μg/Insect
  Adult emergence: Abnormal adults: 23
  Adult emergence: Intermediates: 23
  Adult emergence: Non-emergence: 25
  Adult emergence: Normal adults: 7
  Larval mortality (%): 21%
  Pupal Formation: Abnormal pupa: 54
  Pupal Formation: Normal pupa: 25
  Pupal Formation: Pupal Mortality: 26
Spodoptera litura [2]; 50 μg/Insect
  Adult emergence: Abnormal adults: 6
  Adult emergence: Intermediates: 8
  Adult emergence: Non-emergence: 9
  Adult emergence: Normal adults: 5
  Larval mortality (%): 57%
  Pupal Formation: Abnormal pupa: 38
  Pupal Formation: Normal pupa: 5
  Pupal Formation: Pupal Mortality: 24
Spodoptera litura [2]; 75 μg/Insect
  Adult emergence: Abnormal adults: 1
  Adult emergence: Intermediates: 2
  Adult emergence: Non-emergence: 25
  Adult emergence: Normal adults: 0
  Larval mortality (%): 72%
  Pupal Formation: Abnormal pupa: 28
  Pupal Formation: Normal pupa: 0
  Pupal Formation: Pupal Mortality: 25
Spodoptera litura [2]; 100 μg/Insect
  Adult emergence: Abnormal adults: 0
  Adult emergence: Intermediates: 0
  Adult emergence: Non-emergence: 14
  Adult emergence: Normal adults: 0
  Larval mortality (%): 86%
  Pupal Formation: Abnormal pupa: 14
  Pupal Formation: Normal pupa: 0
  Pupal Formation: Pupal Mortality: 14

## S=C(OCC1CCCO1)SCSC(=S)OCC1CCCO1 (stereo not shown) [methylene Bis (tetrahydrofurfuryl xanthate)]
Aedes aegypti
  LC50 ± S.E.: 3.77 ± 0.59 mg/L (≈ 10.2 µM)
Spodoptera litura [1]; 12.5 μg/sq. cm.
  A.I. (Anti-feedent Index): 8.20
  Percent leaf consumption 12 hr: 48.6%
  Percent leaf consumption 24 hr: 80.6%
Spodoptera litura [1]; 25 μg/sq. cm.
  A.I. (Anti-feedent Index): 22.42
  Percent leaf consumption 12 hr: 31.5%
  Percent leaf consumption 24 hr: 60.2%
Spodoptera litura [1]; 35 μg/sq. cm.
  A.I. (Anti-feedent Index): 33.52
  Percent leaf consumption 12 hr: 25.9%
  Percent leaf consumption 24 hr: 47.3%
Spodoptera litura [1]; 50 μg/sq. cm.
  A.I. (Anti-feedent Index): 35.23
  Percent leaf consumption 12 hr: 22.1%
  Percent leaf consumption 24 hr: 45.5%
Spodoptera litura [1]
  Concentration required for 50% leaf protection EC50 ± S.E.: 37.21 ± 9.67 μg/cm^2
Spodoptera litura [2]; 5 μg/Insect
  Adult emergence: Abnormal adults: 22
  Adult emergence: Intermediates: 0
  Adult emergence: Non-emergence: 3
  Adult emergence: Normal adults: 37
  Larval mortality (%): 36%
  Pupal Formation: Abnormal pupa: 6
  Pupal Formation: Normal pupa: 58
  Pupal Formation: Pupal Mortality: 5
Spodoptera litura [2]; 10 μg/Insect
  Adult emergence: Abnormal adults: 19
  Adult emergence: Intermediates: 1
  Adult emergence: Non-emergence: 2
  Adult emergence: Normal adults: 28
  Larval mortality (%): 46%
  Pupal Formation: Abnormal pupa: 10
  Pupal Formation: Normal pupa: 44
  Pupal Formation: Pupal Mortality: 6
Spodoptera litura [2]; 20 μg/Insect
  Adult emergence: Abnormal adults: 17
  Adult emergence: Intermediates: 21
  Adult emergence: Non-emergence: 2
  Adult emergence: Normal adults: 15
  Larval mortality (%): 59%
  Pupal Formation: Abnormal pupa: 16
  Pupal Formation: Normal pupa: 25
  Pupal Formation: Pupal Mortality: 7
Spodoptera litura [2]; 35 μg/Insect
  Adult emergence: Abnormal adults: 11
  Adult emergence: Intermediates: 2
  Adult emergence: Non-emergence: 3
  Adult emergence: Normal adults: 9
  Larval mortality (%): 71%
  Pupal Formation: Abnormal pupa: 10
  Pupal Formation: Normal pupa: 19
  Pupal Formation: Pupal Mortality: 7
Spodoptera litura [2]; 50 μg/Insect
  Adult emergence: Abnormal adults: 9
  Adult emergence: Intermediates: 3
  Adult emergence: Non-emergence: 1
  Adult emergence: Normal adults: 4
  Larval mortality (%): 80%
  Pupal Formation: Abnormal pupa: 13
  Pupal Formation: Normal pupa: 7
  Pupal Formation: Pupal Mortality: 4
Spodoptera litura [2]; 75 μg/Insect
  Adult emergence: Abnormal adults: 2
  Adult emergence: Intermediates: 0
  Adult emergence: Non-emergence: 2
  Adult emergence: Normal adults: 2
  Larval mortality (%): 91%
  Pupal Formation: Abnormal pupa: 7
  Pupal Formation: Normal pupa: 2
  Pupal Formation: Pupal Mortality: 5
Spodoptera litura [2]; 100 μg/Insect
  Adult emergence: Abnormal adults: 1
  Adult emergence: Intermediates: 0
  Adult emergence: Non-emergence: 0
  Adult emergence: Normal adults: 0
  Larval mortality (%): 98%
  Pupal Formation: Abnormal pupa: 2
  Pupal Formation: Normal pupa: 0
  Pupal Formation: Pupal Mortality: 1
[3]
  LC50 ± S.E.: 5.63 ± 0.62 mg/L (≈ 15.3 µM)
